Measurements: ChEMBL document CHEMBL5226289, “Discovery of natural anti-inflammatory alkaloids: Potential leads for the drug discovery for the treatment of inflammation” (Eur J Med Chem, 2021)
In brackets after ≈: the same amount, converted by molar mass. Each block holds one compound with its values, some of them ahead of it.

Assays:
[1] = biological target: T1, Prostaglandin G/H synthase 2 (Homo sapiens, UniProt P35354); assay: Inhibition of human recombinant COX-2 expressed in baculovirus infected Sf21 cells using arachidonic acid as substrate by spectrophotometric analysis
T1 sequence (P35354 whole entry): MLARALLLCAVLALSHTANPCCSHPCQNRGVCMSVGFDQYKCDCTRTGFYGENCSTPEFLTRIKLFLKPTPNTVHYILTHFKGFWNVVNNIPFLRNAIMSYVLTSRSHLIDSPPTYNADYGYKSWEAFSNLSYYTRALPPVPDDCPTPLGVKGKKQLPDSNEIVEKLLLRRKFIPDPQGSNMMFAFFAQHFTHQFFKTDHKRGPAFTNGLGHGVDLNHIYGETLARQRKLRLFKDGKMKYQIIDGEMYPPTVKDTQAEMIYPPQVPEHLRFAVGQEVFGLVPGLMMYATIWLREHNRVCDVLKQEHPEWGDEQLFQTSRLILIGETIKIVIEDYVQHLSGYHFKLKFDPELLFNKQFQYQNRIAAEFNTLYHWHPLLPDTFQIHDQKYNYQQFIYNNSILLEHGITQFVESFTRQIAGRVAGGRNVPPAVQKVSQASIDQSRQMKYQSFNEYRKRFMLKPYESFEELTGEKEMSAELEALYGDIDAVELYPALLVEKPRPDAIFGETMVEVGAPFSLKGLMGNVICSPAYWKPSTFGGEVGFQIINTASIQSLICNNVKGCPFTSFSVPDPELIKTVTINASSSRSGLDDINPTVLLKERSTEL

[2] = Inhibition of goat 5-LOX by spectrophotometric analysis; parameters: species or system Capra hircus
Rattus norvegicus [3] = assay: Antiinflammatory activity in Wistar albino rat assessed as inhibition of carrageenan-induced paw edema at 20 mg/kg, po preadministered for 1 hrs followed by carrageenan administration and measured upto 10 hrs by Plethysmometer; type: functional; conditions: time <= 11 hrs
Rattus norvegicus [4] = assay: Antiinflammatory activity in Wistar albino rat assessed as inhibition of CFA-induced paw edema at 10 mg/kg, po preadministered for 24 hrs followed by CFA administration and measured after 16 days; type: functional; conditions: 408 h, time 17 day

IC50 [1]: 2500 µM
IC50 [2]: 900 mg/L (≈ 2810 µM)
Structure (SMILES): CC[C@H](CCCC[C@@H]1/C=C\CN/C=C\C1)C[C@@H]1CCC(=O)ON1

Structure (SMILES): OC1CCN2Cc3ccccc3N=C12 (centres undefined)
inhibition in vivo at 20 mg/kg (Rattus norvegicus [3]): 59.5%

Structure (SMILES): O=c1c2ccccc2nc2n1CCC2O (centres undefined)
inhibition in vivo at 10 mg/kg (Rattus norvegicus [4]): 63.9%
